Reference: patent publication US12643912B2, “Macrocyclic compounds, a process for their preparation and pharmaceutical compositions containing them” (LES LABORATOIRES SERVIER, priority 2020, dated 2026)
pEC50, pKd: −log10 of the molar value. Read-outs that look alike come from different tables or passages of the source.

Experiments:
Keap1 (A321-C624) (h) = molecular target: T1, Keap1 (A321-C624) (h) (Homo sapiens, UniProt Q14145); test: Surface Plasmon Resonance binding assay to Kelch domain of KEAP1; conditions: Biacore T200, 25° C., immobilized His-Thromb-KEAP1(A321-C624), single cycle kinetics, KD=kd/ka from 1:1 fit; read-out: Keap1 (A321-C624) (h) direct/SPR (KD)
T1 construct: His-Thromb-KEAP1(A321-C624) acquired from Novalix (batch PU-P01) was immobilized covalently by amine coupling; His tag (N); thrombin cleavage site (Thromb) (N); purchased Novalix batch PU-P01
Experimental: EXAMPLE 85: SURFACE PLASMON RESONANCE
Binding assay to Kelch domain of KEAP1 was performed by Surface Plasmon Resonance (SPR) on a Biacore T200 (GE Healthcare) at 25° C. using CM5 chip. His-Thromb-KEAP1(A321-C624) acquired from Novalix (batch PU-P01) was immobilized covalently by amine coupling using standard wizard protocol, at a concentration of 20 μg/mL in sodium acetate pH 5.5. The ligand was captured until 1250 RU was reached. Amine blank is used as the reference flow cell. Binding of analyte to the ligand was monitored in real time with associations of 180 seconds and a dissociation of 720 seconds. Association (ka) and dissociation (kd) rates were fitted with a simple 1:1 kinetic interaction model using Biacore T200 Evaluation Software (GE Healthcare). The equilibrium constant (KD=kd/ka) was calculated from these fitted parameters. […] The Biacore binding assay was performed with a flowrate of 50 μL/min using a running buffer of 10 mM HEPES (pH 7.4), 150 mM NaCl, 3 mM EDTA, 1 mM TCEP, 0.05% P20,5% DMSO. Double subtraction was used by subtracting both reference flow cell and previous blank cycle (with running buffer). Solvent correction was applied to correct DMSO bulk effect.

[1] = test system: Nrf2 (Keap1-NRF2 nuclear translocation); test: U2OS translocation assay (PathHunter U2OS Keap1-NRF2 Nuclear Translocation Cell Line); assay type: cell-based; conditions: for EC50: Homo sapiens, U2OS, 3 h, read-out: CELLULAR U2OS EC50 (nM), U2OS Keap1-NRF2 nuclear translocation cells, 3 h incubation, luminescence, normalized between 1% DMSO and 10 μM andrographolide; for pEC50: read-out: CELLULAR U2OS EC50, U2OS Keap1-NRF2 nuclear translocation cells, 3 h incubation, luminescence, normalized between 1% DMSO and 10 μM andrographolide
Procedure, shortened: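 PathHunter U2OS line expressing Nrf2-enzyme-donor fusion and nuclear acceptor enzyme, 7 500 cells/well in Opti-MEM, 1% FBS. Compounds incubated 3 h at 37° C. Luminescence after 60 min with detection reagent, normalized between 1% DMSO and 10 μM andrographolide.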

T1 sequence (Q14145 321-624): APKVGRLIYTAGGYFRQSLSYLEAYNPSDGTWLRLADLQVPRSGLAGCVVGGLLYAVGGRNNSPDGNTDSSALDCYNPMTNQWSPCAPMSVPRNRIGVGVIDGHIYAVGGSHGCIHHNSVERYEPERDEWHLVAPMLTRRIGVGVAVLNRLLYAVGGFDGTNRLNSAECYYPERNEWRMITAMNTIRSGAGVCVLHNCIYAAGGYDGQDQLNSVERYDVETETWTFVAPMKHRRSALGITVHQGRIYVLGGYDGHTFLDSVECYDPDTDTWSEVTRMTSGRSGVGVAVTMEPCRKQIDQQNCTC

Row | SMILES | pKd (Keap1 (A321-C624) (h)) | EC50 [1] [nM] | pEC50 [1]
1 | Cc1ccc2cc1CN1Cc3cc(cc(C)c3OS1(=O)=O)OCCCCn1nnc3c(C)c(ccc31)C2CC(=O)O (single isomer, unassigned) [Example 15b, [4,24,31-Trimethyl-27,27-dioxo-21,26-dioxa-27λ^6-thia-1,14,15,16-tetraazahexacyclo[20.5.3.1^3,70.1^9,130.0^12,160.0^25,29]dotriaconta-3(32),4,6,9(31),10,12,14,22,24,29-decaen-8-yl]acetic acid] | 8.36 |  | 6.42
2 | Cc1c(F)cc2cc1CN1Cc3cc(ccc3OS1(=O)=O)OCCCCn1nnc3c(C)c(ccc31)C2CC(=O)O (single isomer, unassigned) [Example 18b, [5-Fluoro-4,31-dimethyl-27,27-dioxo-21,26-dioxa-27λ^6-thia-1,14,15,16-tetraazahexacyclo[20.5.3.1^3,70.1^9,130.0^12,160.0^25,29]dotriaconta-3(32),4,6,9(31),10,12,14,22,24,29-decaen-8-yl]acetic acid] | 9.00 |  | 7.04
3 | Cc1ccc2cc1CN1Cc3cc(ccc3OS1(=O)=O)OCCCCCn1nnc3c(C)c(ccc31)C2CC(=O)O (single isomer, unassigned) [Example 1b, [4,32-dimethyl-28,28-dioxo-22,27-dioxa-28λ^6-thia-1,14,15,16-tetraazahexacyclo[21.5.3.1^3,70.1^9,130.0^12,160.0^26,30]tritriaconta-3(33),4,6,9(32),10,12,14,23,25,30-decaen-8-yl]acetic acid] | 8.40 |  | 6.13
4 | Cc1cc2cc(c1)C(CC(=O)O)c1ccc3c(nnn3CCCCOc3ccc4c(c3)CN(C2)S(=O)(=O)O4)c1C (stereo not shown) [Example 5, [5,31-Dimethyl-27,27-dioxo-21,26-dioxa-27λ^6-thia-1,14,15,16-tetraazahexacyclo[20.5.3.1^3,70.1^9,130.0^12,160.0^25,29]dotriaconta-3(32),4,6,9(31),10,12,14,22,24,29-decaen-8-yl]acetic acid] | 6.88 | 1810 | 
5 | COCCC1CCOc2ccc3c(c2)CN([C@H](C)c2cc(ccc2C)[C@H](CC(=O)O)c2ccc4c(nnn4C1)c2C)S(=O)(=O)O3 (single isomer, unassigned) [Example 24b] | 8.91 |  | 8.61
6 | Cc1ccc2cc1CN1Cc3cc(ccc3OS1(=O)=O)OCCCn1nnc3c(C)c(ccc31)C2CC(=O)O (racemic) [Example 2, [4,30-Dimethyl-26,26-dioxo-20,25-dioxa-26λ^6-thia-1,14,15,16-tetraazahexacyclo[19.5.3.1^3,70.1^9,130.0^12,160.0^24,28]hentriaconta-3(31),4,6,9(30),10,12,14,21,23,28-decaen-8-yl]acetic acid] | 7.45 | 830 | 
7 | Cc1ccc2cc1CN1Cc3cc(cc(F)c3OS1(=O)=O)OCCCCn1nnc3c(C)c(ccc31)C2CC(=O)O (single isomer, unassigned) [Example 17b, [24-Fluoro-4,31-dimethyl-27,27-dioxo-21,26-dioxa-27λ^6-thia-1,14,15,16-tetraazahexacyclo[20.5.3.1^3,70.1^9,130.0^12,160.0^25,29]dotriaconta-3(32),4,6,9(31),10,12,14,22,24,29-decaen-8-yl]acetic acid] | 8.26 |  | 7.05

Second part, led by results:

Row | pKd (Keap1 (A321-C624) (h)) | SMILES | EC50 [1] [nM] | pEC50 [1]
8 | 8.05 | Cc1ccc2cc1[C@@H](C)N1Cc3cc(ccc3OS1(=O)=O)OCCC1(CCOCC1)Cn1nnc3c(C)c(ccc31)C2CC(=O)O (stereo partly drawn) [Example 68, [(2R)-2,4,31-Trimethyl-27,27-dioxo-27λ^6-spiro[21,26-dioxa-27-thia-1,14,15,16-tetraazahexacyclo[20.5.3.1^3,70.1^9,130.0^12,160.0^25,29]dotriaconta-3(32),4,6,9(31),10,12,14,22,24,29-decaene-18,4′-oxan]-8-yl]acetic acid] | 38.3 | 
9 | 8.29 | COc1ccc2cc1CN1Cc3cc(ccc3OS1(=O)=O)OCCOCCn1nnc3c(C)c(ccc31)C2CC(=O)O (single isomer, unassigned) [Example 59a, [4-Methoxy-32-methyl-28,28-dioxo-19,22,27-trioxa-28λ^6-thia-1,14,15,16-tetraazahexacyclo[21.5.3.1^3,70.1^9,130.0^12,160.0^26,30]tritriaconta-3(33),4,6,9(32),10,12,14,23,25,30-decaen-8-yl]acetic acid] | 311 | 
10 | 8.21 | Cc1ccc2cc1CN1Cc3cc(ccc3OS1(=O)=O)OCCCCCOc1cc(c(C)c3nnn(C)c13)C2CC(=O)O (single isomer, unassigned) [Example 73a, [4,10,14-Trimethyl-29,29-dioxo-17,23,28-trioxa-29λ^6-thia-1,12,13,14-tetraazahexacyclo[22.5.3.1^3,70.1^9,160.0^11,150.0^27,31]tetratriaconta-3(34),4,6,9(33),10,12,15,24,26,31-decaen-8-yl]acetic acid] |  | 7.20
11 | 8.80 | Cc1ccc2cc1CN1Cc3cc(ccc3OS1(=O)=O)N(C)CCCCn1nnc3c(C)c(ccc31)C2CC(=O)O (stereo not shown) [Example 42, [4,21,31-Trimethyl-27,27-dioxo-26-oxa-27λ^6-thia-1,14,15,16,21-pentaazahexacyclo[20.5.3.1^3,70.1^9,130.0^12,160.0^25,29]dotriaconta-3(32),4,6,9(31),10,12,14,22,24,29-decaen-8-yl]acetic acid] | 21.4 | 
12 | 8.45 | Cc1ccc2cc1[C@@H](C)N1Cc3cc(ccc3OS1(=O)=O)OCCCOCCn1nnc3c(C)c(ccc31)[C@H]2CC(=O)O [Example 27b, [(2R,8S)-2,4,33-trimethyl-29,29-dioxo-19,23,28-trioxa-29λ^6-thia-1,14,15,16-tetraazahexacyclo[22.5.3.1^3,70.1^9,130.0^12,160.0^27,31]tetratriaconta-3(34),4,6,9(33),10,12,14,24,26,31-decaen-8-yl]acetic acid] | 16.2 | 
13 | 8.60 | [2H]C([2H])(C(=O)O)[C@H]1c2ccc(C)c(c2)CN2Cc3cc(ccc3OS2(=O)=O)OCCCCn2nnc3c(C)c1ccc32 [Example 55b, [(8S)-4,31-Dimethyl-27,27-dioxo-21,26-dioxa-27λ^6-thia-1,14,15,16-tetraazahexacyclo[20.5.3.1^3,70.1^9,130.0^12,160.0^25,29]dotriaconta-3(32),4,6,9(31),10,12,14,22,24,29-decaen-8-yl](^2H2)acetic acid] | 15.8 | 
14 | 8.69 | Cc1ccc2cc1CN1Cc3cc(c(F)cc3OS1(=O)=O)OCCCCn1nnc3c(C)c(ccc31)C2CC(=O)O (single isomer, unassigned) [Example 32b, [23-Fluoro-4,31-dimethyl-27,27-dioxo-21,26-dioxa-27λ^6-thia-1,14,15,16-tetraazahexacyclo[20.5.3.1^3,70.1^9,130.0^12,160.0^25,29]dotriaconta-3(32),4,6,9(31),10,12,14,22,24,29-decaen-8-yl]acetic acid] |  | 6.82
15 | 9.19 | Cc1ccc2cc1CN1Cc3cc(c(F)cc3OS1(=O)=O)OCCCCn1nnc3c(C)c(ccc31)C2CC(=O)O (single isomer, unassigned) [Example 32a, [23-Fluoro-4,31-dimethyl-27,27-dioxo-21,26-dioxa-27λ^6-thia-1,14,15,16-tetraazahexacyclo[20.5.3.1^3,70.1^9,130.0^12,160.0^25,29]dotriaconta-3(32),4,6,9(31),10,12,14,22,24,29-decaen-8-yl]acetic acid] |  | 7.70
16 | 8.34 | Cc1c(Cl)cc2cc1CN1Cc3cc(ccc3OS1(=O)=O)OCCCCn1nnc3c(C)c(ccc31)C2CC(=O)O (single isomer, unassigned) [Example 33a, [5-Chloro-4,31-dimethyl-27,27-dioxo-21,26-dioxa-27λ^6-thia-1,14,15,16-tetraazahexacyclo[20.5.3.1^3,70.1^9,130.0^12,160.0^25,29]dotriaconta-3(32),4,6,9(31),10,12,14,22,24,29-decaen-8-yl]acetic acid] |  | 7.02
17 | 7.49 | Cc1cc2cc(c1Cl)CN1Cc3cc(ccc3OS1(=O)=O)OCCCCn1nnc3c(C)c(ccc31)C2CC(=O)O (single isomer, unassigned) [Example 36b, [4-Chloro-5,31-dimethyl-27,27-dioxo-21,26-dioxa-27λ^6-thia-1,14,15,16-tetraazahexacyclo[20.5.3.1^3,70.1^9,130.0^12,160.0^25,29]dotriaconta-3(32),4,6,9(31),10,12,14,22,24,29-decaen-8-yl]acetic acid] |  | 5.90
